Consider two compounds from publication PMC10060354, “Discovery of a small molecule ligand of FRS2 that inhibits invasion and tumor growth” (Cellular Oncology, 2022).

Where two headings read alike, the source gives them in different places.

The target in one data set is T1, GB1-FRS2-PTB (Homo sapiens, UniProt Q8WU20).
T1 construct: FRS2-PTB 11-140aa; 6xHis (N); made in house; host or cells: E. coli BL21 (DE3)
T1 sequence (Q8WU20 11-140): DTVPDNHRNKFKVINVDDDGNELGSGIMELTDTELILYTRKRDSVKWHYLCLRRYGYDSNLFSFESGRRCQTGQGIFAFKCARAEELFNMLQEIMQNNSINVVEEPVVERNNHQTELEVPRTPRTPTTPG
The experiment in a line: NMR STD and WaterLOGSY ligand observation. Format: binding. As to conditions: 25 µM GB1-FRS2-PTB, 500 µM ligand, 280 K. Here is the method: STD and WaterLOGSY experiments were measured at 7 °C on a Bruker AvNEO 600 spectrometer equipped with a TCI cryoprobe. In the STD experiments saturation was achieved by applying a series of Gaussian-shaped pulses at a RF field strength of 54 Hz (max.) for 3 s at -0.5 ppm (-40 ppm for the reference experiment) and 512 scans were accumulated. The WaterLOGSY was measured with 256 scans and a mixing time of 1.5 s. A 7.5 ms Gaussian-shaped 180° pulse was used to control the water magnetization. For both experiments samples of 25 µM GB1-FRS2_PTB with a 20-fold excess of ligand (500 µM) were used or with the ligand alone for the control experiment.

Data set [1] relates to FRS2 (Y436) phosphorylation. Kind of data set: Immunoblotting, FRS2 phosphorylation. As to conditions: DAOY or SW780 cells; 10 µM compound. The class given is cell-based, human. Here is the method: (§1) Cells were serum starved o.n. and 10 µM compound or 1 µM (BGJ398) were added 3 h before stimulation with 100 ng/ml bFGF for 15 min. Cells were lysed in RIPA buffer containing protease inhibitor cocktail and lysates resolved by SDS-PAGE. Membranes were probed with primary antibodies against phospho-FRS2, FRS2, phospho-ERK1/2, ERK1/2, pAKT, AKT and tubulin. Integrated density of immuno-reactive bands was quantified using Adobe Photoshop CS3. Integrated densities of phospho bands relative to non-phospho bands of same protein were calculated and plotted as fold-change relative to untreated control conditions. Compounds and BGJ398 were added in DMSO and corresponding DMSO concentrations were used in control samples.

A further data set deals with ERK (pT202/Y204). The experiment in a line: Immunoblotting, ERK phosphorylation. Format: cell-based, human. The settings on record: SW780 and AGS cells; 10 µM. Here is the method:
as §1

Data set [2] can be described thus: In vivo bioavailability / PK after 1 mg/kg IV or 10 mg/kg PO. Set-up: species or system Male ICR mice. The settings on record: for AUC(0-t): iv. Here is the method:
In vivo bioavailability studies were performed by Pharmacology Discovery Services Taiwan, Ltd., (New Taipei City, Taiwan). Male ICR mice weighing 20—30 g were provided by BioLasco Taiwan (under Charles River Laboratories Licensee). Animals were acclimated for 3 days prior to use and were confirmed with good health. All animals were maintained in a hygienic environment with controlled temperature (20—24 °C), humidity (30%—70%) and 12 h light/dark cycles. Free access to sterilized standard lab diet [MFG (Oriental Yeast Co., Ltd., Japan)] and autoclaved tap water. A pharmacokinetic (PK) study was performed in male ICR mice following intravenous (IV) and oral (PO) administration of compound 7 and E12 and IV administration of the test compound 3.14. The three test compounds (7, E12 and 3.14) were formulated in 1% dimethyl sulfoxide (DMSO)/10% Solutol® HS-15/ phosphate buffered saline (PBS) at 0.2 mg/mL and 1 mg/mL for IV and PO administration, respectively. The dosing volumes were 5 ml/kg for IV and 10 ml/kg for PO. The dose was 1 mg/kg for IV and 10 mg/kg for PO routes.

[3] abbreviates: male, ICR, mouse, plasma, 1 mg/kg, IV.

Take `CC(C)C[C@@H](CO)NCc1cc(O)c2cc(F)ccc2n1` [Compound 3.14]: the “binding to the PTB domain by STD and WaterLOGSY (result in words)” value on GB1-FRS2-PTB is given as “clearly demonstrated binding”. Further, in data set [1], the “basal or bFGF-induced Y436 phosphorylation of FRS2 (result in words)” value is “not effective in SW780 cells”. Moreover, the “pERK (result in words)” value with ERK (pT202/Y204) is given as “significantly reduced pERK”. Moreover, the “AUC Extr (%)” value in data set [2] (1 mg/kg, IV) came out at 0.5%. The AUC(0-t) in data set [2] (male, ICR, mouse, plasma, 1 mg/kg, IV, read-out: AUClast) was found to be 410 ng·h/mL. Moreover, in data set [2] (male, ICR, mouse, plasma, 1 mg/kg, mice, 1 mg/kg IV, read-out: AUClast after IV administration), the AUC(0-t) worked out at 413 ng·h/mL. In data set [2] (setting [3]), this compound had an AUC(0-inf) of 413 ng·h/mL, a mean residence time (MRT) of 0.52 h, a clearance of 40 mL/min/kg and a half-life of 1.55 h. In addition, the Vd in data set [2] (male, ICR, mouse, plasma, 1 mg/kg, IV, read-out: Vss) was 1.3 L/kg. Moreover, the C0 in data set [2] (male, ICR, mouse, mice, 1 mg/kg IV, plasma, read-out: C0 after IV administration) came out at 2700 ng/mL. Also, in data set [2] (mice, 1 mg/kg IV), the “CL1/2 after IV administration” value is listed as 1.55 h.

Turning to `O=C(O)c1c(Cl)cc(O)c2c1C1C=CCC1C(c1ccc(Cl)cc1)N2` (centres unmarked) [Compound 13], the “binding to the PTB domain by STD and WaterLOGSY (result in words)” value on GB1-FRS2-PTB is given as “clearly demonstrated binding”.
